From patent US8012956B2, “Tropane compounds” (Exelixis, Inc., priority 2007, dated 2011) come the findings set out here.

The target in this test is HSP90 (Homo sapiens, UniProt P07900). As to the kind of experiment: HSP90 inhibition (HSP90 IC50). Type of test: biochemical.
Turning to `COc1cccc(C(=O)NC2CC3CCC(C2)N3c2ccc(C(=O)N[C@H]3CCC[C@@H]3OCc3ccccc3)cn2)c1C` (stereo partly drawn) [6-[3-endo-({[2-methyl-3-(methyloxy)phenyl]carbonyl}amino)-8-azabicyclo[3.2.1]oct-8-yl]-N-{(1S,2S)-2-[(phenylmethyl)oxy]cyclopentyl}pyridine-3-carboxamide], the IC50 was 2000 to 10000 nM.
With `CC(C)CC(=O)c1ccc(N2[C@@H]3CC[C@H]2C[C@@H](NC(=O)c2ccc(C(N)=O)c(NCC4CC4)c2)C3)nc1` [2-[(cyclopropylmethyl)amino]-N4-{8-[5-(3-methylbutanoyl)pyridin-2-yl]-8-azabicyclo[3.2.1]oct-3-endo-yl}benzene-1,4-dicarboxamide] the figure was 1000 to 2000 nM; with `COc1cccc(C(=O)N[C@H]2C[C@H]3CC[C@@H](C2)N3c2ccc(C(=O)NC3CCN(Cc4ccccc4)CC3)cn2)c1C` [6-[3-endo-({[2-methyl-3-(methyloxy)phenyl]carbonyl}amino)-8-azabicyclo[3.2.1]oct-8-yl]-N-[1-(phenylmethyl)piperidin-4-yl]pyridine-3-carboxamide], less than 500 nM.
With `CC(=O)c1ccc(N2[C@@H]3CC[C@H]2C[C@@H](NC(=O)c2ccc(C(N)=O)c(NC(C)C(C)(C)C)c2)C3)nc1` (stereo partly drawn) [N4-[8-(5-acetylpyridin-2-yl)-8-azabicyclo[3.2.1]oct-3-endo-yl]-2-[(1,2,2-trimethylpropyl)amino]benzene-1,4-dicarboxamide] the figure was less than 500 nM; with `NC(=O)c1ccc(N2[C@@H]3CC[C@H]2C[C@@H](NC(=O)c2ccc(C(N)=O)c(NC4CCC4)c2)C3)nc1` [N4-{8-[5-(aminocarbonyl)pyridin-2-yl]-8-azabicyclo[3.2.1]oct-3-endo-yl}-2-(cyclobutylamino)benzene-1,4-dicarboxamide], less than 500 nM.
`C[C@H](NC(=O)c1ccc(N2C3CCC2CC(NC(=O)c2ccc(C(N)=O)c(NCCN4CCOCC4)c2)C3)nc1)c1ccc(N2CCN(C)CC2)cc1` (stereo partly drawn) [N4-(8-{5-[({(1S)-1-[4-(4-methylpiperazin-1-yl)phenyl]ethyl}amino)carbonyl]pyridin-2-yl}-8-azabicyclo[3.2.1]oct-3-endo-yl)-2-[(2-morpholin-4-ylethyl)amino]benzene-1,4-dicarboxamide] registered a half-inhibitory concentration (IC50) of less than 500 nM.
Regarding `COCCNc1cc(C(=O)N[C@H]2C[C@H]3CC[C@@H](C2)N3c2ccc(C(N)=O)cn2)ccc1C(N)=O` [N4-{8-[5-(aminocarbonyl)pyridin-2-yl]-8-azabicyclo[3.2.1]oct-3-endo-yl}-2-{[2-(methyloxy)ethyl]amino}benzene-1,4-dicarboxamide], the IC50 was less than 500 nM.
As for `NC(=O)c1ccc(C(=O)N[C@H]2C[C@H]3CC[C@@H](C2)N3c2ccc(C(=O)CCC3CCNCC3)cn2)cc1NCC1CC1` [2-[(cyclopropylmethyl)amino]-N4-{8-[5-(3-piperidin-4-ylpropanoyl)pyridin-2-yl]-8-azabicyclo[3.2.1]oct-3-endo-yl}benzene-1,4-dicarboxamide], the IC50 was less than 500 nM.
As to `Cc1cc(C(=O)N[C@H]2C[C@H]3CC[C@@H](C2)N3c2ccc(C(=O)NC3CCN(C)CC3)cn2)c(C)cc1C(N)=O` [2,5-dimethyl-N-[8-(5-{[(1-methylpiperidin-4-yl)amino]carbonyl}pyridin-2-yl)-8-azabicyclo[3.2.1]oct-3-endo-yl]benzene-1,4-dicarboxamide], the IC50 was in the range of 500 to 999 nM.
Next, `COc1cccc(C(=O)N[C@H]2C[C@H]3CC[C@@H](C2)N3c2ccc(C(=O)NCc3ccc(Br)cc3)cn2)c1C` [N-[(4-bromophenyl)methyl]-6-[3-endo-({[2-methyl-3-(methyloxy)phenyl]carbonyl}amino)-8-azabicyclo[3.2.1]oct-8-yl]pyridine-3-carboxamide]: 500 to 999 nM.
Next, `CCCNc1cc(C(=O)N[C@H]2C[C@H]3CC[C@@H](C2)N3c2ccc(C(=O)C3CC3)cn2)c(C)cc1C(N)=O` [N-{8-[5-(cyclopropylcarbonyl)pyridin-2-yl]-8-azabicyclo[3.2.1]oct-3-endo-yl}-2-methyl-5-(propylamino)benzene-1,4-dicarboxamide]: less than 500 nM.

In general, IC50 refers to the concentration that inhibits the measured activity by half. High values mean weaker potency in that assay, low ones greater potency in that assay.
